How the values were obtained:
[1] = system: NCI-H2228 cell line; test: CellTiter-Glo cell proliferation inhibition on NCI-H2228 cell line; assay type: cell-based; conditions: Homo sapiens, NCI-H2228, 96 h, NCI-H2228 cells, 5000 cells/well, 4 days drug treatment
Summary of the method: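 NCI-H2228 cells, 5000/well in RPMI-1640 + 10% FBS, treated with compounds 2 h after seeding (0.5% DMSO final) for 4 days at 37° C. Viability by CellTiter-Glo luminescence; inhibition relative to DMSO control, IC50 from curve fit.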

[2] = molecular target: T1, L1196M mutant ALK kinase (Homo sapiens, UniProt Q9UM73, L1196M); test: HTRF KinEASE-TK assay, inhibitory activity on L1196M mutant ALK kinase; assay type: biochemical; conditions: L1196M mutant ALK 1 ng/μl, substrate 1 μM, ATP 5 μM, 30° C. 35 minutes, read-out: Inhibition on ALK kinases (L1196M mutant), IC50
T1 construct: purchased Sino-US Crown Bioscience, Inc. batch number ALKm_20110923
T1 sequence (Q9UM73 19-1620 L1196M): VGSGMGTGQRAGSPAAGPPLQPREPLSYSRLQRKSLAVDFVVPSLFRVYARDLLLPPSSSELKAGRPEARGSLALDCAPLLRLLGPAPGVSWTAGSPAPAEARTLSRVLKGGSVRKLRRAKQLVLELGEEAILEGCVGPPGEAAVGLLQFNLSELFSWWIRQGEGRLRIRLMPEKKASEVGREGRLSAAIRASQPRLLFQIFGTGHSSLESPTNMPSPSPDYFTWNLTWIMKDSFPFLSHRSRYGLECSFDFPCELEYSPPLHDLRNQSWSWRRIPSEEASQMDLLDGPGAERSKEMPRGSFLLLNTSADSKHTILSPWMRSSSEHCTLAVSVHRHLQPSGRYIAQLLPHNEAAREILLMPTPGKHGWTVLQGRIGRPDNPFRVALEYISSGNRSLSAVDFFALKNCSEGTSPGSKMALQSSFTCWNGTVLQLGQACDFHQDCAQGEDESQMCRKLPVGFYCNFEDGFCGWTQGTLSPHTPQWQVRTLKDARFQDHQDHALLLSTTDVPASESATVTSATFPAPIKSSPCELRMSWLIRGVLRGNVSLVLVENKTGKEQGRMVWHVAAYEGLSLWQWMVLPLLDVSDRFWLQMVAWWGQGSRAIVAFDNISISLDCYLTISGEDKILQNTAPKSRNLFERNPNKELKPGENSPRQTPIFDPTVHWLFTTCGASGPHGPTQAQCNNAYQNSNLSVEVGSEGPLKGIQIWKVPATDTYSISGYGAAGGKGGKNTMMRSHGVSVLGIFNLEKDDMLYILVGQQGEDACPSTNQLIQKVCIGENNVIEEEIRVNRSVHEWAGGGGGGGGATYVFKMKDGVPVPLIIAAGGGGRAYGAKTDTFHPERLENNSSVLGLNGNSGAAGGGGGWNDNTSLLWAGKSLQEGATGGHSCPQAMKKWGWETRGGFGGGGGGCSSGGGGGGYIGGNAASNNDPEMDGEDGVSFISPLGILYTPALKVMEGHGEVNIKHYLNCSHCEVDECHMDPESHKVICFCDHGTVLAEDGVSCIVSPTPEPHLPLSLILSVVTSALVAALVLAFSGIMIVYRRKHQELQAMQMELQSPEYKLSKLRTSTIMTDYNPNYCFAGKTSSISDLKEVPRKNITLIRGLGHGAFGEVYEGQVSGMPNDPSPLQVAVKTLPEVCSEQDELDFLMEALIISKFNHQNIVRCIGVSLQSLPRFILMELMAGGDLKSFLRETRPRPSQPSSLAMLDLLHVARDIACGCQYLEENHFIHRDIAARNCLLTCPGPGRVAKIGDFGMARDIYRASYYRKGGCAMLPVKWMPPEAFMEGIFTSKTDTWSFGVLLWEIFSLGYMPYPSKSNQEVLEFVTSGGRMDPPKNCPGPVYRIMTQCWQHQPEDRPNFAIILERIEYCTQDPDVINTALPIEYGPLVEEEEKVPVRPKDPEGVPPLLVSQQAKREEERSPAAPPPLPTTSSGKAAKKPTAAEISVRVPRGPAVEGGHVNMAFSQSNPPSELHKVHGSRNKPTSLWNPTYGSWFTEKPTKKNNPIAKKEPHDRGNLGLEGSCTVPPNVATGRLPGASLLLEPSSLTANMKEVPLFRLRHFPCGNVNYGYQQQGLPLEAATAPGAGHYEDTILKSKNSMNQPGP
Summary of the method: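 HTRF TK assay: mutant kinase 1 ng/μl, substrate 1 μM, ATP 5 μM, 5 mM MgCl2, 1 mM DTT, 1% DMSO, 35 min at 30 °C. 665/615 ratio read; inhibition normalised to no-compound and 10.4 μM LDK-378 controls; IC50 from curve fit.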

| Compound | IC50 [1] [nM] | IC50 [2] [nM] |
| --- | --- | --- |
| Cc1cc(Nc2ncc(Cl)c(Nc3cn(C)nc3S(=O)(=O)C(C)C)n2)c(OC2CC2)cc1C1CCN(C(=O)C(C)(C)C)CC1 [Final product 164, 1-pivaloyl-4-(4-(5-chloro-4-(3-(isopropylsulfonyl)-1-methyl-1H-pyrazol-4-amino)pyrimidin-2-amine)-5-cyclopropoxy-2-methylphenyl)piperidine] | 87 | 56 |
| Cc1cc(Nc2ncc(Cl)c(Nc3cn(C)nc3S(=O)(=O)C(C)C)n2)c(OC(C)C)cc1C1CN(S(C)(=O)=O)C1 [Final product 168] | 440 | 25 |
| Cc1cc(Nc2ncc(Cl)c(Nc3cn(C)nc3S(=O)(=O)C(C)C)n2)c(OC2CC2)cc1C1CN(S(C)(=O)=O)C1 [Final product 170] | 381 | 95 |
| Cc1cc(Nc2ncc(Cl)c(Nc3cn(C)nc3S(=O)(=O)CC(C)C)n2)c(OC2CC2)cc1C1CN(S(C)(=O)=O)C1 [Final product 171] | 251 | 156 |
| CC(C)S(=O)(=O)c1nn(C)cc1Nc1nc(Nc2ccc(C3CCN(S(C)(=O)=O)C3)cc2OC2CC2)ncc1Cl (centres unmarked) [Final product 172] | 111 | 9 |
| CCN(CC)[C@H]1CC[C@H](c2cc(OC3CC3)c(Nc3ncc(Cl)c(Nc4cn(C)nc4S(=O)(=O)CC(C)C)n3)cc2C)CC1 [Final product 178] | 101 | 17 |
| Cc1cc(Nc2ncc(Cl)c(Nc3cn(C)nc3S(=O)(=O)CC(C)C)n2)c(OC2CC2)cc1[C@H]1CC[C@H](NC2CC2)CC1 [Final product 180] | 127 | 40 |
| Cc1cc(Nc2ncc(Cl)c(Nc3cn(C)nc3S(=O)(=O)CC(C)C)n2)c(OC2CC2)cc1[C@H]1CC[C@H](NC(C)C)CC1 [Final product 182] | 89 | 22 |
| Cc1cc(Nc2ncc(Cl)c(Nc3cn(C)nc3S(=O)(=O)C(C)C)n2)c(OC(C)C)cc1[C@H]1CC[C@H](NC(C)C)CC1 [Final product 188] | 89 | 8 |
| Cc1cc(Nc2ncc(Cl)c(Nc3cn(C)nc3S(=O)(=O)C(C)C)n2)c(OC2CC2)cc1[C@H]1CC[C@H](NC2CC2)CC1 [Final product 196] | 88 | 18 |

Compounds with a lower IC50 [1], results first:

| IC50 [1] [nM] | IC50 [2] [nM] | Compound |
| --- | --- | --- |
| 82 | 6 | CCNC(=O)N1CCC(c2cc(OC3CC3)c(Nc3ncc(Cl)c(Nc4cn(C)nc4S(=O)(=O)C(C)C)n3)cc2C)CC1 [Final product 174, 4-(4-(5-chloro-4-(3-(isopropylsulfonyl)-1-methyl-1H-pyrazol-4-amine)pyrimidin-2-amine)-5-cyclopropoxy-2-methyl-phenyl)-N-ethyl-piperidin-1-carboxamide] |
| 76 | 7 | Cc1cc(Nc2ncc(Cl)c(Nc3cn(C)nc3S(=O)(=O)C(C)C)n2)c(OC2CC2)cc1[C@H]1CC[C@@H](N(C)C)CC1 [Final product 189] |
| 54 | 9 | Cc1cc(Nc2ncc(Cl)c(Nc3cn(C)nc3S(=O)(=O)C(C)C)n2)c(OC2CC2)cc1[C@H]1CC[C@H](NC(C)C)CC1 [Final product 198] |
| 35 | 3 | Cc1cc(Nc2ncc(Cl)c(Nc3cn(C)nc3S(=O)(=O)C(C)C)n2)c(OC2CC2)cc1C1CCN(C(=O)CN(C)C)CC1 [Final product 165, 1-(2-dimethylamino)acetyl-4-(4-(5-chloro-4-(3-(isopropylsulfonyl)-1-methyl-1H-pyrazol-4-amino)pyrimidin-2-amino)-5-cyclopropoxy-2-methylphenyl)piperidine] |
| 34 | 21 | Cc1cc(Nc2ncc(Cl)c(Nc3cn(C)nc3S(=O)(=O)C(C)C)n2)c(OC2CC2)cc1C1CCN(C(=O)C2CC2)CC1 [Final product 162, 1-cyclopropylformyl-4-(4-(5-chloro-4-(3-(isopropylsulfonyl)-1-methyl-1H-pyrazol-4-amino)pyrimidin-2-amine)-5-cyclopropoxy-2-methylphenyl)piperidine] |
| 34 | 28 | CC(C)S(=O)(=O)c1nn(C2CC2)cc1Nc1nc(Nc2ccc(C3CCN(S(C)(=O)=O)CC3)cc2OC2CC2)ncc1Cl [Final product 173] |

From patent publication US10023593B2, “ALK kinase inhibitor, and preparation method and uses thereof” (BEIJING PEARL BIOTECHNOLOGY LIMITED LIABILITY COMPANY, priority 2014, dated 2018)
